One block for each compound: values may come before it.
Columns and labels:
[1] = log P determination by LC-MS in the acidic range (HCOOH); format: physicochemical; conditions: LC-MS column with aqueous formic acid/acetonitrile gradient, pH 2.7, 0.1% aqueous formic acid and acetonitrile
Experimental: The LC-MS determination in the acidic range is carried out at pH 2.7 using 0.1% aqueous formic acid and acetonitrile (contains 0.1% formic acid) as mobile phases; linear gradient from 10% acetonitrile to 95% acetonitrile.
Calibration is carried out using unbranched alkan-2-ones (with 3 to 16 carbon atoms) with known log P values (determination of the log P values by the retention times using linear interpolation between two successive alkanones).

[2] = test system: green peach aphid (Myzus persicae); experiment: Myzus test (MVZUPE spray treatment); format: in vivo; conditions: after 6 days, Chinese cabbage leaf discs
Experimental: (§1) To produce a suitable preparation of active compound, one part by weight of active compound is mixed with the stated amounts of solvents and emulsifier, and the concentrate is diluted with emulsifier-containing water to the desired concentration.
Discs of Chinese cabbage leaves (Brassica pekinensis) which are infested by all stages of the green peach aphid (Myzus persicae) are sprayed with an active compound preparation of the desired concentration.
(§2) After 6 days, the effect in percent is determined. 100% means that all aphids have been killed; 0% means that none of the aphids have been killed.

[3] = test system: caterpillars of the armyworm (Spodoptera frugiperda); experiment: Spodoptera frugiperda test (SPODFR spray treatment); format: in vivo; conditions: after 6 days, maize leaf discs
Experimental: as §1
Discs of maize leaves (Zea mays) are sprayed with an active compound preparation of the desired concentration and, after drying, populated with caterpillars of the armyworm (Spodoptera frugiperda).
as §2

[4] = test system: larvae of the mustard beetle (Phaedon cochleariae); experiment: Phaedon test (PHAECO spray treatment); format: in vivo; conditions: application rate 500 g/ha, after 7 days, Chinese cabbage leaf discs
Experimental: [table] To produce a suitable preparation of active compound, one part by weight of active compound is mixed with the stated amounts of solvents and emulsifier, and the concentrate is diluted with emulsifier-containing water to the desired concentration. Discs of Chinese cabbage leaves (Brassica pekinensis) are sprayed with an active compound preparation of the desired concentration and, after drying, populated with larvae of the mustard beetle (Phaedon cochleariae).

chromatographic logP [1]: 2.15
SMILES: CON1CCC2(CC1)OC(=O)C(c1c(C)cc(C)cc1C)=C2O [I-a-1]

SMILES: CCc1cc(C)cc(C)c1C1=C(O)C2(CCN(OC)CC2)OC1=O [I-a-3]
activity (aphids killed) ([2]; application rate 500 g/ha): 100%

SMILES: CCc1cc(C)cc(CC)c1C1=C(O)C2(CCN(OC)CC2)OC1=O [I-a-10]
activity (aphids killed) ([2]; application rate 500 g/ha): 100%

SMILES: CCON1CCC2(CC1)OC(=O)C(c1c(C)ccc(-c3ccc(Cl)cc3)c1C)=C2O [I-a-12]
activity (aphids killed) ([2]; application rate 500 g/ha): 100%
activity (killed) ([3]; application rate 100 g/ha): ≥ 100%

SMILES: CCON1CCC2(CC1)OC(=O)C(c1c(C)cc(C)cc1C)=C2O [I-a-7]
activity (aphids killed) ([2]; application rate 500 g/ha): 100%

SMILES: CON1CCC2(CC1)OC(=O)C(c1cc(-c3ccc(Cl)cc3)ccc1C)=C2O [I-a-4]
activity (beetle larvae killed) [4]: 100%
activity (aphids killed) ([2]; application rate 500 g/ha): 100%

SMILES: CCc1cc(-c2ccc(Cl)cc2)cc(C)c1C1=C(O)C2(CCN(OC)CC2)OC1=O [I-a-6]
activity (beetle larvae killed) [4]: 100%

SMILES: CCON1CCC2(CC1)OC(=O)C(c1cc(-c3ccc(Cl)cc3)ccc1C)=C2O [I-a-13]
activity (beetle larvae killed) [4]: 100%
activity (aphids killed) ([2]; application rate 500 g/ha): 100%

SMILES: CON1CCC2(CC1)OC(=O)C(c1c(C)ccc(-c3ccc(Cl)cc3)c1C)=C2O [I-a-5]
activity (aphids killed) ([2]; application rate 100 g/ha): 100%
activity (killed) ([3]; application rate 500 g/ha): ≥ 80%

chromatographic logP [1]: 1.16
SMILES: CCOC(=O)C1(O)CCN(OCC)CC1 [XIV-2]

chromatographic logP [1]: 0.94
SMILES: CCOC(=O)C1(O)CCN(OC)CC1 [XIV-1]

SMILES: CON1CCC2(CC1)OC(=O)C(c1c(C)ccc(-c3ccc(F)cc3)c1C)=C2O [I-a-9]
activity (aphids killed) ([2]; application rate 500 g/ha): 100%

chromatographic logP [1]: 4.28
SMILES: CCOC(=O)C1(OC(=O)Cc2c(C)cc(C)cc2C)CCN(OC)CC1 [II-1]

SMILES: CCON1CCC2(CC1)OC(=O)C(c1c(CC)cc(C)cc1CC)=C2O [I-a-11]
activity (aphids killed) ([2]; application rate 500 g/ha): 100%

Reference: patent US8592610B2, “Spiroheterocyclic tetronic acid derivatives” (Bayer CropScience AG, priority 2009, dated 2013)
